In patent US12263144B2, “Methods of treating IgA nephropathy with thiol-containing molecules” (Accubit LLC—Biotechnology, priority 2020, dated 2025):

Tests used:
Assay type in all cases: biochemical
[1] = target: T1, human IgA1 (poly-IgA1) (Homo sapiens, UniProt P01876); experiment: SEC of native human IgA1 treated ex vivo; conditions: IgA1 from pooled plasma of IgA nephropathy patients, different concentrations, FIG. 5 C
T1 construct: human IgA1 whole molecule was purified from pooled plasma of IgA nephropathy patients; from tissue
T1 sequence (P01876 1-353 isoform P01876-1): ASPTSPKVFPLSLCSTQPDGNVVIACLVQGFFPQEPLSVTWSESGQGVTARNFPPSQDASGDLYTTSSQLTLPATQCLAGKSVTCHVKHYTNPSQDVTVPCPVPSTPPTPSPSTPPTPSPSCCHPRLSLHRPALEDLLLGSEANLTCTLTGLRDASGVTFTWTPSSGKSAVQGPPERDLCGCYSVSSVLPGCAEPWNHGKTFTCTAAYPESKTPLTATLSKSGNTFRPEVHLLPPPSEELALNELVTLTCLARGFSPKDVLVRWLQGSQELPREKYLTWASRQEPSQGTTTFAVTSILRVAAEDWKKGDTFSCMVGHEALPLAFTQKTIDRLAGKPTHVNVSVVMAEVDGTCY
From the text: IgA1 from IgA nephropathy patient sera was purified by Jacalin (Thermo Scientific, USA)-directed affinity chromatography. Poly-IgA1 contents were further enriched via running Superdex 200 Increase gel filtration molecular sieve (GE Biosciences) and collecting high-molecular weight fractions from an AKTA protein purification system (GE Biosciences). Human serum from healthy donors was purchased from Sigma-Aldrich and total IgA1 was also purified by running Jacalin-directed chromatography. Purified total IgA1 was used for injecting mice.
(§1) The overall complex size of IgA aggregates was determined either by size-exclusion chromatography (SEC: Superdex 200 Increase 10/300 by GL Cytiva), or by SDS-PAGE. For evaluating the involvement of intermolecular disulfide connectivity in IgA complexes, IgA samples were treated with either reducing agents, such as DTT, TCEP or reduced glutathione (Sigma), or interventional drugs, such as cysteamine (Sigma), WR-1065 (Sigma) and N-Acetyl-L-cysteine (VWR Chemicals) in phosphate-buffered saline (PBS) pH7.4. Before running on SEC, samples were treated with the drugs at indicated concentrations at 37° C. for one hour.
(§2) In the meantime, the SEC column was also equilibrated with PBS supplemented with the reducing agent at the same concentration. For running SEC, 100 μL of the recombinant IgA (concentration varies between 1 mg/mL and 8 mg/mL) or purified native human IgA1 (˜1 mg/mL) was loaded to the column and UV absorption was recorded following elution. Recombinant IgA typically formed two elution peaks: a minor peak of ˜800 kDa poly-rIgA followed by a major peak of ˜170 kDa of monomeric rIgA. The ratios between poly-rIgA and mono-rIgA were calculated as between the corresponding areas under the curve (AUC), and the treatment effect of the thiol agents was judged by the reduction of the poly-rIgA level with a compensatory increase of the mono-rIgA content.
In addition, human IgA1 whole molecule was purified from pooled plasma of IgA nephropathy patients and subjected the sample to different concentrations of cysteamine (FIG. 5, part C). […]

[2] = system: Rat rIgA (poly-rIgA); experiment: SEC determination of poly- and mono-rIgA content of rat rIgA after treatment; conditions: 1 h 37° C., PBS, SEC AUC
Experimental: as §1
as §2, with “Recombinant IgA typically formed two elution peaks: a minor peak of ˜800 kDa poly-rIgA followed by a major peak of ˜170 kDa of monomeric rIgA.” left out
To further investigate specific cysteine residue(s) involved in IgA complexes, expression vectors were constructed to produce recombinant IgA (rIgA) Fc segments of rat and human sequences (FIG. 2, part A) as discussed above. Rat IgA analogs were expressed in BL21 DE3 strain of E. coil and recombinant protein were purified from the bacterial lysate using Histrap HP columns (GE Healthcare) by running fast protein liquid chromatography (FPLC). Human recombinant IgA mimetics were produced from human embryo kidney (HEK293) cells by transfection of the expressing plasmids. Recombinant IgA proteins expressed by the cells were secreted into the culture medium, and they were subsequently purified by Histrap HP columns by FPLC using standard procedures. […] Rat rIgA was produced from bacterial expression as discussed above.
Cysteamine (Cy), an aminothiol that can react with cysteine, is both a natural metabolite produced in mammalian cells and a clinical drug used for treatment of cystinosis. In cystinosis, cysteamine reduces the disulfide bond in cystine, which is the oxidated dimer of amino acid cysteine (FIG. 4, part A). In the context of cysteine residues in proteins, endogenous cysteamine as well as the therapeutic drug forms mixed disulfides with susceptible cysteine sulfhydryl groups in a process called cysteamination (FIG. 4, part B). It was sought to determine whether cysteamine could reduce Cys471-disulfides to disaggregate poly-IgA. Rat rIgA (SEQ ID NO.4) was treated with various concentrations of cysteamine for one hour at 37° C. in phosphate buffered saline at neutral pH and the protein complexes were analyzed by SEC. The SEC column (model: Superdex 200 Increase 10/300 GL by Cytiva) was preequilibrated with the same buffer supplemented with the same concentration of cysteamine.

[3] = system: rat poly-rIgA; experiment: Nonreducing SDS-PAGE analysis of rat poly-rIgA after pretreatment; conditions: cysteamine 0 to 10 mM; TCEP 10 mM; untreated poly-IgA >250 kDa
Experimental: Proteins in sample buffer (Bio-Rad Laboratories, Hercules, CA, USA) with or without TCEP (for reducing or nonreducing condition, respectively) were resolved by 4-12% SDS-PAGE (Bio-Rad Laboratories). IgA bands were subsequently visualized either by staining with GelCode Blue (Thermo Fisher Scientific), or by Western blotting on PVDF membrane. For Western blotting, 5% non-fat milk was used in blocking for one hour at room temperature. The membrane was then incubated with mouse anti-Histag antibody (Thermo Scientific), or HRP-conjugated goat anti-rat IgA α-chain antibody (Cat. ab97185, Abcam, UK), or goat anti-human IgA HRP antibody (Cat: 2050-05, SouthernBiotech) for detecting rat or human IgA (Fc), respectively. The membrane was developed using the Clarity™ ECL substrate (Bio-Rad Laboratories, CA, USA).
To further ascertain the mechanism-of-action of cysteamine in targeting disulfides, nonreducing SDS-PAGE analysis was performed of rat poly-rIgA (FIG. 5, part D). The samples were pretreated with 0 to 10 mM cysteamine, or 10 mM TCEP as positive control. As expected, poly-IgA appeared as >250 kDa bands on SDS-PAGE. Dose-dependent response of poly-rIgA to cysteamine was evident, with majority of the protein running at ˜64 kDa of disaggregated monomers.

- poly-IgA1 amount (SEC) [1]: reduced the amounts of poly-IgA1
Structure (SMILES): NCCS [cysteamine]
- Mono-IgA (%) ([2]; cysteamine 0.1 mM): 81.85%
- Poly-IgA (%) ([2]; cysteamine 0.1 mM): 18.15%
- Mono-IgA (%) ([2]; cysteamine 1 mM): 89.57%
- Poly-IgA (%) ([2]; cysteamine 1 mM): 10.43%
- Mono-IgA (%) ([2]; cysteamine 5 mM): 93.59%
- Poly-IgA (%) ([2]; cysteamine 5 mM): 6.414%
- Mono-IgA (%) ([2]; cysteamine 10 mM): 93.24%
- Poly-IgA (%) ([2]; cysteamine 10 mM): 6.759%
- molecular weight of protein band after pretreatment (nonreducing SDS-PAGE) [3]: ~64 kDa
